Measured values: patent publication US20030032587A1, “Urocortin peptides” (The Salk Institute for Biological Studies, priority 1995, published 2003)
Bridges are numbered along the chain shown (N, C = ends). Where no end group is shown, it is not given here. [ ]: non-standard residue; d: D form.

B1: (cyclo 29-32) [Pro10,D-Phe11, Glu29,D-Glu31, Lys32]-Ucn(10-40) (peptide)
peptide: P[dF]HLLRTLLELARTQSQREEA[dE]KNRIIFDSV-NH2
modifications: lactam 20-23; N-terminus assumed
SMILES: CC[C@H](C)[C@H](NC(=O)[C@H](CCCNC(=N)N)NC(=O)[C@H](CC(N)=O)NC(=O)[C@@H]1CCCCNC(=O)CC[C@H](NC(=O)[C@H](CCC(=O)O)NC(=O)[C@H](CCCNC(=N)N)NC(=O)[C@H](CCC(N)=O)NC(=O)[C@H](CO)NC(=O)[C@H](CCC(N)=O)NC(=O)[C@@H](NC(=O)[C@H](CCCNC(=N)N)NC(=O)[C@H](C)NC(=O)[C@H](CC(C)C)NC(=O)[C@H](CCC(=O)O)NC(=O)[C@H](CC(C)C)NC(=O)[C@H](CC(C)C)NC(=O)[C@@H](NC(=O)[C@H](CCCNC(=N)N)NC(=O)[C@H](CC(C)C)NC(=O)[C@H](CC(C)C)NC(=O)[C@H](Cc2c[nH]cn2)NC(=O)[C@@H](Cc2ccccc2)NC(=O)[C@@H]2CCCN2)[C@@H](C)O)[C@@H](C)O)C(=O)N[C@@H](C)C(=O)N[C@H](CCC(=O)O)C(=O)N1)C(=O)N[C@H](C(=O)N[C@@H](Cc1ccccc1)C(=O)N[C@@H](CC(=O)O)C(=O)N[C@@H](CO)C(=O)N[C@H](C(N)=O)C(C)C)[C@@H](C)CC
B2: (cyclo 29-32) [D-Pro10,D-Phe11, Glu29, D-Glu31, Lys32]-Ucn(10-40) (peptide)
peptide: [dP][dF]HLLRTLLELARTQSQREEA[dE]KNRIIFDSV-NH2
modifications: lactam 20-23; N-terminus assumed
SMILES: CC[C@H](C)[C@H](NC(=O)[C@H](CCCNC(=N)N)NC(=O)[C@H](CC(N)=O)NC(=O)[C@@H]1CCCCNC(=O)CC[C@H](NC(=O)[C@H](CCC(=O)O)NC(=O)[C@H](CCCNC(=N)N)NC(=O)[C@H](CCC(N)=O)NC(=O)[C@H](CO)NC(=O)[C@H](CCC(N)=O)NC(=O)[C@@H](NC(=O)[C@H](CCCNC(=N)N)NC(=O)[C@H](C)NC(=O)[C@H](CC(C)C)NC(=O)[C@H](CCC(=O)O)NC(=O)[C@H](CC(C)C)NC(=O)[C@H](CC(C)C)NC(=O)[C@@H](NC(=O)[C@H](CCCNC(=N)N)NC(=O)[C@H](CC(C)C)NC(=O)[C@H](CC(C)C)NC(=O)[C@H](Cc2c[nH]cn2)NC(=O)[C@@H](Cc2ccccc2)NC(=O)[C@H]2CCCN2)[C@@H](C)O)[C@@H](C)O)C(=O)N[C@@H](C)C(=O)N[C@H](CCC(=O)O)C(=O)N1)C(=O)N[C@H](C(=O)N[C@@H](Cc1ccccc1)C(=O)N[C@@H](CC(=O)O)C(=O)N[C@@H](CO)C(=O)N[C@H](C(N)=O)C(C)C)[C@@H](C)CC

Legend:
[1] = system: mammalian systemic blood pressure; assay: mammalian vasodilatory-hypotensive activity; type: in vivo; settings: result in words
[2] = system: primary murine anterior pituitary cells; type: cell-based; settings: for ACTH secretion in vitro, times as effective as r/hCRF (confidence limits): anterior pituitary cell cultures, relative to r/hCRF; for stimulates the secretion of ACTH and β-END-LI (β-endorphin): result in words
From the text: (§1) A straightforward assay using rat anterior pituitary cells in monolayer culture can be carried out to determine whether a candidate peptide thereof will function as a CRF agonist and stimulate ACTH secretion by activating CRF receptors on such cells. The procedure which is used is that generally set forth in Endocrinology, 91, supra. A very similar assay is used to test for antagonistic properties, using a challenge dose of oCRF or the like.
To test the ability of purified Ucn or another candidate Ucn-like peptide to function as a CRF agonist and to promote ACTH production and/or secretion, cultures of dispersed primary murine anterior pituitary cells (0.15×10^6 cells/well are used), as generally described in Vale et al. Meth. Enzym., 103, 565-577 (1983), and in Endocrinology, 91, 562 (1972). These cultures are maintained in 0.5 ml/well of β-PJ (a reagent available from Kansas City Biochemicals) containing 2% fetal bovine serum. On the morning of culture day 5, the cells are washed 3 times with β-PJ containing 0.1% bovine serum albumin and then incubated for 1 hour at 37° C. in the same medium. The medium is then replaced with Ucn, or an analog thereof, diluted in β-PJ containing 0.1% bovine serum albumin. Incubations are terminated after 3 hours, at which time the medium is removed and stored at −20° C. until ACTH radioimmunoassays are performed using a suitable kit, such as that commercially available from Diagnostic Products Corporation of Los Angeles, Calif. Secreted ACTH is measured using Allfit computer program with results expressed as the average±s.e.m. of 3 replicate bioassays.

[3] = system: rat anterior pituitary cells; assay: ACTH secretion by anterior pituitary cell cultures in the presence of a challenge dose of ovine CRF (antagonist test); type: cell-based; settings: result in words; test not specified
From the text: as §1
An in vivo test measuring elevation of mean arterial blood pressure as a result of iv injection is also simply and straightforwardly performed.

[4] = biological target: CRF receptors on anterior pituitary cells in culture; assay: cell-based or functional assay

Row | Molecule | vasodilatory-hypotensive activity, including lowering systemic blood pressure and stimulating the secretion of ACTH [1] | ACTH secretion in vitro, times as effective as r/hCRF (confidence limits) [2] | stimulates the secretion of ACTH and β-END-LI (β-endorphin) [2] | bioactivity as Ucn antagonists [3] | antagonism of ACTH secretion under a challenge dose of ovine CRF, potency relative to the Standard Antagonist (times Standard Antagonist) [4]
1 | Ac-Pro-D-Pro-Leu-Ser-Ile-Asp-Leu-Thr-D-Phe-His-Leu-Leu-Arg-Thr-Leu-Leu-Glu-Leu-Ala-Arg-Thr-Gln-Ser-Gln-Arg-Glu-Glu-Ala-Glu-Lys-Asn-Arg-Ile-Ile-Phe-Asp-Ser-Val-NH2 (Ac-P[dP]LSIDLT[dF]HLLRTLLELARTQSQREEAEKNRIIFDSV-NH2; lactam 27-30 (inferred)) | causes vasodilatory-hypotensive activity | 9.90 (4.48-22.85) | stimulates the secretion of ACTH and β-END-LI |  | 
2 | H-Asn-Pro-Ser-Leu-Ser-Ile-Asp-Leu-Thr-Phe-His-Leu-Leu-Arg-Thr-Leu-Leu-Glu-Leu-Ala-Arg-Thr-Gln-Ser-Gln-Arg-Glu-Arg-Ala-Glu-Gln-Asn-Arg-Ile-Ile-Phe-Asp-Ser-Val-NH2 (H-NPSLSIDLTFHLLRTLLELARTQSQRERAEQNRIIFDSV-NH2) [hUcn(2-40)] | significant mammalian vasodilatory-hypotensive activity |  |  |  | 
3 | H-DNPSLSIDLT[dF]HLLRTLLELARTQSQRERAEQNRIIFDSV-NH2 [[D-Phe^11]-hUcn] | significant mammalian vasodilatory-hypotensive activity |  |  |  | 
4 | Ac-Pro-D-Ser-Leu-Ser-Ile-Asp-Leu-Thr-D-Phe-His-Leu-Leu-Arg-Thr-Leu-Leu-Glu-Leu-Ala-Arg-Thr-Gln-Ser-Gln-Arg-Glu-Glu-Ala-Glu-Lys-Asn-Arg-Ile-Ile-Phe-Asp-Ser-Val-NH2 (Ac-P[dS]LSIDLT[dF]HLLRTLLELARTQSQREEAEKNRIIFDSV-NH2; lactam 27-30 (inferred)) | causes vasodilatory-hypotensive activity | 5.69 (2.43-14.49) | stimulates the secretion of ACTH and β-END-LI |  | 
5 | H-Asp-Asn-Pro-Ser-Leu-Ser-Ile-Asp-Leu-Thr-Phe-His-Leu-Leu-Arg-Thr-Leu-Leu-Glu-Leu-Ala-Arg-Thr-Gln-Ser-Gln-Arg-Glu-Arg-Ala-Glu-Gln-Asn-Arg-Ile-Ile-Phe-Asp-Ser-Val-NH2 (H-DNPSLSIDLTFHLLRTLLELARTQSQRERAEQNRIIFDSV-NH2) [Human Ucn(1-40)] | significant mammalian vasodilatory-hypotensive activity | 3.10 (1.41-6.65) |  |  | 
6 | H-Tyr-Asp-Asp-Pro-Pro-Leu-Ser-Ile-Asp-Leu-Thr-Phe-His-Leu-Leu-Arg-Thr-Leu-Leu-Glu-Leu-Ala-Arg-Thr-Gln-Ser-Gln-Arg-Glu-Arg-Ala-Glu-Gln-Asn-Arg-Ile-Ile-Phe-Asp-Ser-val-NH2 [[Tyr^∘]rUcn(1-40)] | significant mammalian vasodilatory-hypotensive activity | 2.20 (1.28-3.88) |  |  | 
7 | Ucn (10-40) (TFHLLRTLLELARTQSQRERAEQNRIIFDSV; ends and bridges not checked; UniProt P55089 92-122, looked up, fragment) |  |  |  | bioactivity as Ucn antagonists | 
8 | Ac-Pro-Ser-Leu-Ser-Ile-Asp-Leu-Thr-D-Phe-His-Leu-Leu-Arg-Thr-Leu-Leu-Glu-Leu-Ala-Arg-Thr-Gln-Ser-Gln-Arg-Glu-Glu-Ala-D-Glu-Lys-Asn-Arg-Ile-Ile-Phe-Asp-Ser-Val-NH2 (Ac-PSLSIDLT[dF]HLLRTLLELARTQSQREEA[dE]KNRIIFDSV-NH2; lactam 27-30 (inferred)) | causes vasodilatory-hypotensive activity | 6.14 (2.83-14.05) | stimulates the secretion of ACTH and β-END-LI |  | 
9 | Ac-Pro-Ser-Leu-Ser-Ile-Asp-Leu-Thr-Phe-His-Leu-Leu-Arg-Thr-Leu-Leu-Glu-Leu-Ala-Arg-Thr-Gln-Ser-Gln-Arg-Glu-Arg-Ala-Glu-Gln-Asn-Arg-Ile-Ile-Phe-Asp-Ser-Val-NH2 (Ac-PSLSIDLTFHLLRTLLELARTQSQRERAEQNRIIFDSV-NH2) [[Ac-Pro^3]-hUcn(3-40)] | causes vasodilatory-hypotensive activity |  | stimulates the secretion of ACTH and β-END-LI |  | 
10 | H-[dY]DNPSLSIDLTFHLLRTLLELARTQSQRERAEQNRIIFDSV-NH2 [[D-Tyr^∘]hUcn(1-40)] | significant mammalian vasodilatory-hypotensive activity | 1.23 (0.60-2.54) |  |  | 
11 | [Ac-Thr^10]Ucn(10-40) |  |  |  | bioactivity as Ucn antagonists | 
12 | B1 |  |  |  |  | 2.74
13 | B2 |  |  |  |  | 4.99
